Data taken from US12583825B2, “Benzo[h]quinazolin-4-amine and thieno[3,2-h]quinazolin-4-amine derivatives for the treatment of cancer” (Redona Therapeutics, Inc., priority 2020, dated 2026).

Legend:
MDA-MB-231 cells = assay: MDA-MB-231 proliferation assay; assay type: cell-based; conditions: Homo sapiens, 72 hours, YO-PRO-1 readout
In short: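 Cells seeded at 750/well in DMEM with 10% FBS, treated 72 h at 37 °C, 0.5% DMSO final. Cell number read by YO-PRO-1 fluorescence (485/530 nm), normalised to DMSO (100%) and time-of-addition cells (0%); 4-parameter logistic fit with maximum fixed at 100%.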

recombinant human CLK3 = target: T1, recombinant human CLK3 (Homo sapiens, UniProt P49761); assay: CLK3 kinase assay (LANCE Ultra); assay type: biochemical; conditions: 0.5 nM CLK3, 300 μM ATP, 3 hours at 30° C.
T1 construct: purchased Thermo Fisher Scientific PV3826
T1 sequence (P49761 whole entry): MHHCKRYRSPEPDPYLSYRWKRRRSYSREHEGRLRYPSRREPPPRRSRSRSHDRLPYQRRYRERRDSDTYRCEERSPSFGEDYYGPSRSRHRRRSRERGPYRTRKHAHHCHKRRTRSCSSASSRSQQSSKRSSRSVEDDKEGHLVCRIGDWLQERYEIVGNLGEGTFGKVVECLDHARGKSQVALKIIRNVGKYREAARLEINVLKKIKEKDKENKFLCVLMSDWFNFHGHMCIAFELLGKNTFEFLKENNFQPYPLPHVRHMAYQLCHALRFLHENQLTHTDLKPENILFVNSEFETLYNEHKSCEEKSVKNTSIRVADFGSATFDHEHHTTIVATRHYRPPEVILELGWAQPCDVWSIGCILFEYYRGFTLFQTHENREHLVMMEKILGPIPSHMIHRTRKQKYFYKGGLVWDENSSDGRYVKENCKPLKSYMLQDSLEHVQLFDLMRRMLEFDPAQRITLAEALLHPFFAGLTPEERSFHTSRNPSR
In short: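 TR-FRET (LANCE Ultra) read-out of phospho-CREBtide after a 3 h, 30 °C reaction containing 300 μM ATP, 50 nM ULight-CREBtide and 0.5 nM recombinant human CLK3, compounds in 1% DMSO.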

[1] = tested on: phospho-SRSF6 levels in MDA-MB-468 cells; assay: Inhibition of phospho-SRSF6 levels in MDA-MB-468 cells (Western blot); assay type: cell-based; conditions: Homo sapiens, 100 nM, 2 hours, normalized by GAPDH, read-out: % Intensity of p-SRSF6 signal at 100 nM compared to DMSO control
Protocol: FIG. 1: FIG. 1 provides a representative Western blot showing reduction of phosphorylated-SRSF6 (P-SRSF6) in MDA-MB 468 cells by compounds of the invention. GAPDH was probed for by Western blotting to control for equal protein loading and for normalization of samples. The numbers below the blots show percent intensity of P-SRSF6 signal at 100 nM compared to DMSO control.
Assessment of Inhibition of Phospho-SRSF6 Levels in MDA-MB-468 Cells
MDA-MB-468 cells (ATCC, HTB-132) were cultured in DMEM (BioConcept cat. no. 1-26F03) supplemented with 10% FBS (Sigma cat. no. F9665), 1% Na-pyruvate (Sigma cat. no. S8636), 1% Penicillin-Streptomycin (BioConcept cat. no. 4-01F00-H). When cells reached a density of 70% in 6-well plates (TPP cat. no. 92006), they were treated either with the test compound vehicle DMSO, or with experimental compounds at a final concentration of 100 nM for 2 hours. Thereafter, the culture medium was removed and cells were collected by scraping in Lysis Buffer (20 mM Tris HCl pH7.5, 150 mM NaCl, 1 mM EGTA, 1 mM EDTA, 1% Triton and 1% NP-40) containing protease and phosphatase inhibitors (Halt™ Protease&Phosphatase inhibitor cocktail 100× ThermoScientific cat. no. 1861281) and 1 mM PMSF (Fluka cat. no. 93482). Cleared lysates were stored in Eppendorf tubes at −80° C. until use, and protein concentration in lysates was determined using Pierce 660 nm Protein Assay Reagent (ThermoScientific cat. no. 22660). 20 μg proteins were diluted in 4× Laemmli buffer (Biorad cat. no. 161-0747) containing 10% beta-mercaptoethanol, separated by SDS-PAGE using 10% gels, and then transferred to PVDF membranes (Trans Blot Turbo Transfer Pack BioRad cat. no. 1704156) by Trans-Blot® Turbo™ System semidry blotting methodology (BioRad). Primary antibodies were incubated in TBS-0.1% Tween-20 buffer containing 3% BSA Bovine Albumin Fr.V (Millipore cat. no. 81-053-3) overnight at 4° C. The following primary antibodies were used: Mouse anti-phosphoepitope SR proteins clone 1H4 (Millipore cat. no. MABE50) diluted 1:5000, and rabbit anti-GAPDH clone 14C10 (Cell Signaling cat. no. 2118S) to control for equal protein loading, diluted 1:2000. HRP-conjugated secondary antibodies were incubated one hour at room temperature diluted 1:5000 in TBS-0.1% Tween-20 buffer containing 5% nonfat-dried bovine milk (Sigma cat. no. M7409). The following secondary antibodies were used: Goat anti-mouse-HRP (Jackson cat. no. 115-035-146) and goat anti-rabbit-HRP (Jackson cat. no. 111-035-144). Membranes were incubated with ECL Prime Western Blot Detection Reagent (Amersham cat. no. RPN2236) to detect specific signals using Fusion SOLO S device (Vilber Lourmat). Pixel intensity of the phopsho-SRSF6 (MW 55 kDa in reference to markers) and GAPDH (MW 37 kDa) signals in the Western blots were determined using Evolution-Capt image analysis software (v17.01, Vilber Lourmat). DMSO control was used to set the phospho-SRSF6 signal at baseline, phospho-SRSF6 signals for each sample were normalized by the respective GAPDH signals and percent intensity of P-SRSF6 signal at 100 nM compound compared to DMSO control was calculated (see FIG. 1).

GI50 (MDA-MB-231 cells) [nM] | IC50 (recombinant human CLK3) [nM] | SMILES | activity at 0.1 µM [1] [%]
407 | 9.1 | CO/N=C1\c2cc(O[C@H]3CC[C@H](N)CC3)ccc2-c2ncnc(N)c2C1(C)C [Example 1, (6Z)-8-(trans-4-aminocyclohexoxy)-6-methoxyimino-5,5-dimethyl-benzo[h]quinazolin-4-amine] | 19
271 | 2.1 | C=C(c1ccc2c(c1)/C(=N\OC)C(C)(C)c1c(N)ncnc1-2)[C@H]1CC[C@H](N)CC1 [Example 4, (6Z)-8-[1-(trans-4-aminocyclohexyl)vinyl]-6-methoxyimino-5,5-dimethyl-benzo[h]quinazolin-4-amine] | 32
> 2000 | 32.1 | COc1ccc2c(c1)/C(=N\OCCCC#N)C(C)(C)c1c(N)ncnc1-2 [Example 6, 4-[(Z)-(4-amino-8-methoxy-5,5-dimethyl-benzo[h]quinazolin-6-ylidene)amino]oxybutanenitrile] | 41
1200 | 4.3 | COc1ccc2c(c1)/C(=N\OC[C@@H]1CNC(=O)O1)C(C)(C)c1c(N)ncnc1-2 [Example 13, (5S)-5-[[(Z)-(4-amino-8-methoxy-5,5-dimethyl-benzo[h]quinazolin-6-ylidene)amino]oxymethyl]oxazolidin-2-one] | 28
445 | 20.2 | CC1(C)/C(=N/OCCO)c2cc(O[C@H]3CC[C@H](N)CC3)ccc2-c2ncnc(N)c21 [Example 19, 2-[(Z)-[4-amino-8-(trans-4-aminocyclohexoxy)-5,5-dimethyl-benzo[h]quinazolin-6-ylidene]amino]oxyethanol] | 25
569 | 27.2 | C#CCO/N=C1\c2cc(O[C@H]3CC[C@H](N)CC3)ccc2-c2ncnc(N)c2C1(C)C [Example 21, (6Z)-8-(trans-4-aminocyclohexoxy)-5,5-dimethyl-6-prop-2-ynoxyimino-benzo[h]quinazolin-4-amine] | 12
269 | 16.1 | CC1(C)/C(=N/OCCCC#N)c2cc(O[C@H]3CC[C@H](N)CC3)ccc2-c2ncnc(N)c21 [Example 27, 4-[(Z)-[4-amino-8-(trans-4-aminocyclohexoxy)-5,5-dimethyl-benzo[h]quinazolin-6-ylidene]amino]oxybutanenitrile] | 26
> 2000 | 4.16 | CC1(C)/C(=N/OC[C@@H]2CNC(=O)O2)c2cc(O[C@H]3CC[C@H](N)CC3)ccc2-c2ncnc(N)c21 [Example 38, (5S)-5-[[(Z)-[4-amino-8-(trans-4-aminocyclohexoxy)-5,5-dimethyl-benzo[h]quinazolin-6-ylidene]amino]oxymethyl]oxazolidin-2-one] | 48
> 2000 | 21.7 | CO/N=C1\c2cc(OC)ccc2-c2ncnc(N)c2C1(C)C [Example 40, (6Z)-8-methoxy-6-methoxyimino-5,5-dimethyl-benzo[h]quinazolin-4-amine] | 45
– | 8.8 | CN1C[C@@H](CO/N=C2\c3cc(O[C@H]4CC[C@@H](N)CC4)ccc3-c3ncnc(N)c3C2(C)C)OC1=O [Example 88, (5S)-5-[[(Z)-[4-amino-8-(cis-4-aminocyclohexoxy)-5,5-dimethyl-benzo[h]quinazolin-6-ylidene]amino]oxymethyl]-3-methyl-oxazolidin-2-one] | 21
10.5 | 3.7 | COCCO/N=C1\c2cc(O[C@H]3CC[C@@H](N)CC3)ccc2-c2ncnc(N)c2C12CCCC2 [Example 100, (6Z)-8-(cis-4-aminocyclohexoxy)-6-(2-methoxyethoxyimino)spiro[benzo[h]quinazoline-5,1′-cyclopentane]-4-amine] | –
184 | 28.3 | COCCO/N=C1\c2cc(O[C@H]3CC[C@@](C)(N)CC3)ccc2-c2ncnc(N)c2C1(C)C [Example 103, (6Z)-8-(cis-4-amino-4-methyl-cyclohexoxy)-6-(2-methoxyethoxyimino)-5,5-dimethyl-benzo[h]quinazoline-4-amine] | –
41.3 | 10.4 | Nc1ncnc2c1C1(CCCC1)/C(=N/O)c1cc(O[C@H]3CC[C@@H](N)CC3)ccc1-2 [Example 104, 4-amino-8-(cis-4-minocyclohexoxy)spiro[benzo[h]quinazoline-5,1′-cyclopentane]-6-one oxime] | –
307 | 23.4 | CC1(C)/C(=N/OCCc2ccccc2)c2cc(O[C@H]3CC[C@@H](N)CC3)ccc2-c2ncnc(N)c21 [Example 106, (6Z)-8-(cis-4-aminocyclohexoxy)-5,5-dimethyl-6-(2-phenylethoxyimino)benzo[h]quinazoline-4-amine] | –
156 | – | CCOCCO/N=C1\c2cc(O[C@H]3CC[C@@H](N)CC3)ccc2-c2ncnc(N)c2C1(C)C [Example 109, (6Z)-8-(cis-4-aminocyclohexoxy)-6-(2-ethoxyethoxyimino)-5,5-dimethyl-benzo[h]quinazoline-4-amine] | 21
> 2000 | 31.8 | CC1(C)/C(=N/OCCCS(C)(=O)=O)c2cc(O[C@H]3CC[C@@H](N)CC3)ccc2-c2ncnc(N)c21 [Example 110, (6Z)-8-(cis-4-aminocyclohexoxy)-5,5-dimethyl-6-(3-methylsulfonylpropoxyimino)benzo[h]quinazoline-4-amine] | –
106 | – | CC(C)(C#N)CCO/N=C1\c2cc(O[C@H]3CC[C@@H](N)CC3)ccc2-c2ncnc(N)c2C1(C)C [Example 111, 4-[(Z)-[4-amino-8-(cis-4-aminocyclohexoxy)-5,5-dimethyl-benzo[h]quinazolin-6-ylidene]amino]oxy-2,2-dimethyl-butanenitrile] | 16
66.2 | 8.8 | CC1(C)/C(=N/OCCOCC(F)(F)F)c2cc(O[C@H]3CC[C@@H](N)CC3)ccc2-c2ncnc(N)c21 [Example 112, (6Z)-8-(cis-4-aminocyclohexoxy)-5,5-dimethyl-6-[2-(2,2,2-trifluoroethoxy)ethoxyimino]benzo[h]quinazolin-4-amine] | –
71.7 | 28.9 | CC1(C)/C(=N/OCCC(F)(F)F)c2cc(O[C@H]3CC[C@@H](N)CC3)ccc2-c2ncnc(N)c21 [Example 116, (6Z)-8-(cis-4-aminocyclohexoxy)-5,5-dimethyl-6-(3,3,3-trifluoropropoxyimino)benzo[h]quinazoline-4-amine] | –

SMILES | GI50 (MDA-MB-231 cells) [nM] | IC50 (recombinant human CLK3) [nM] | activity at 0.1 µM [1] [%]
CC1(C)/C(=N/OCCCCF)c2cc(O[C@H]3CC[C@@H](N)CC3)ccc2-c2ncnc(N)c21 [Example 113, (6Z)-8-(cis-4-aminocyclohexoxy)-6-(4-fluorobutoxyimino)-5,5-dimethyl-benzo[h]quinazolin-4-amine] | 167 | 21.2 | –
CC1(C)/C(=N/OCCCC(F)(F)F)c2cc(O[C@H]3CC[C@@H](N)CC3)ccc2-c2ncnc(N)c21 [Example 114, (6Z)-8-(cis-4-aminocyclohexoxy)-5,5-dimethyl-6-(4,4,4-trifluorobutoxyimino)benzo[h]quinazolin-4-amine] | 373 | 48.9 | –
